MIC and IC50 data for 17 compounds are collected here from patent US20260365641A1, “Aromatic Acetylene Derivative, Preparation Method Therefor, And Use Thereof” (Zhejiang Hisun Pharmaceutical Co., Ltd., priority 2022, published 2026).

The test system of one assay is E. coli ATCC 25922. Nature of the assay: Antibacterial activity, minimum inhibitory concentration (MIC) in vitro, broth dilution. Format: cell-based. To be noted: Escherichia coli, ATCC25922, 5×10^5 cfu/mL, 35 °C, 18-24 hours. In a few lines:
(§1)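 Broth microdilution per CLSI in CAMHB, inoculum 5×10^5 cfu/mL. Compound added from 100× DMSO working stocks across 11 two-fold dilutions, final 64 to 0.06 μg/mL. Incubated 18-24 h at 35 °C.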

The next assay relates to K. pneumoniae ATCC13883. Described as above. Format: cell-based. Particulars: Klebsiella pneumoniae, 5×10^5 cfu/mL, 35 °C, 18-24 hours. In a few lines:
as §1

Assay [1] addresses T1, recombinant Pseudomonas aeruginosa LpxC (Pseudomonas aeruginosa, UniProt P47205).
T1 construct: purchased Signalway Antibody AP74647-2
T1 sequence (P47205 1-303): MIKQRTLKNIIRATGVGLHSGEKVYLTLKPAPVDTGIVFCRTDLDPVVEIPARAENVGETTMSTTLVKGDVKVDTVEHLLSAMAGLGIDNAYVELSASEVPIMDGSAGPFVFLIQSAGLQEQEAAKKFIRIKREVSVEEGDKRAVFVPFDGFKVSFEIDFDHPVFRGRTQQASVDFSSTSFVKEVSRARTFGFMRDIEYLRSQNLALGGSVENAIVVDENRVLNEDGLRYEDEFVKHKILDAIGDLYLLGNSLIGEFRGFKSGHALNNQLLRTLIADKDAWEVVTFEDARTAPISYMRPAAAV
The assay can be described thus: Inhibition of enzymatic activity of recombinant Pseudomonas aeruginosa LpxC in vitro. Format: biochemical. To be noted: 5 nM LpxC; substrate UDP-3-O—(R-3-hydroxydecanoyl)-GlcNAc; 25 °C, 120 minutes; fluorescamine readout. In a few lines:
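LpxC (5 nM final) was incubated with compound (8-point 4-fold series, 0.61–10000 nM) and […] UDP-3-O-(R-3-hydroxydecanoyl)-GlcNAc for 120 min at 25 °C. Product was detected with fluorescamine (Ex 390/Em 495 nm) after a pH 8.0 phosphate stop. IC50 was fitted by nonlinear regression against 0.1% DMSO control.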

The next assay deals with K. pneumoniae ATCC51504. The assay can be described thus: Antibacterial activity, minimum inhibitory concentration (MIC) in vitro, broth dilution. Format: cell-based. To be noted: Klebsiella pneumoniae, 5×10^5 cfu/mL, 35 °C, 18-24 hours. The procedure, abridged:
as §1
(Broth dilution looks for growth in wells or tubes with falling amounts of substance.)

In brackets after ≈: the same amount, converted by molar mass.

Regarding `C[C@H](O)c1nccn1Cc1cc(-c2ccc(C#CC3CC4(CCN(C=O)CC4)C3)cc2)on1` [Example 17, (S)-2-((4-(3-((2-(1-hydroxyethyl)-1H-imidazol-1-yl)methyl)isoxazol-5-yl)phenyl)ethynyl)-7-azaspiro[3.5]nonane-7-carbaldehyde], the values for the MIC in the assay on E. coli ATCC 25922 and in the assay on K. pneumoniae ATCC13883 were 1 mg/L (≈ 2.25 µM) and 2 mg/L (≈ 4.5 µM), respectively. The IC50 (commonly the concentration at which inhibition is half-maximal) in assay [1] was 8.32 nM.
On to `C[C@H](O)c1nccn1Cc1cc(-c2ccc(C#CC3CC4(CCN(CC(N)=O)CC4)C3)cc2)on1` [Example 13, (S)-2-(2-((4-(3-((2-(1-hydroxyethyl)-1H-imidazol-1-yl)methyl)isoxazol-5-yl)phenyl)ethynyl)-7-azaspiro[3.5]nonan-7-yl)acetamide], for which the MIC against E. coli ATCC 25922 and against K. pneumoniae ATCC13883 was 1 mg/L (≈ 2.11 µM) each time. In assay [1], the half-inhibitory concentration (IC50) amounted to 5 nM.
As for `C[C@H](O)c1nccn1Cc1cc(-c2ccc(C#CC3CC4(C3)CN(CCn3cncn3)C4)cc2)on1` [Example 53, (S)-1-(1-((5-(4-((2-(2-(1H-1,2,4-triazol-1-yl)ethyl)-2-azaspiro[3.3]heptan-6-yl)ethynyl)phenyl)isoxazol-3-yl)methyl)-1H-imidazol-2-yl)ethan-1-ol], the MIC (in general, the least concentration at which growth counts as inhibited) with K. pneumoniae ATCC51504 came out at 2 mg/L (≈ 4.14 µM); in the assay on E. coli ATCC 25922, 2 mg/L (≈ 4.14 µM); against K. pneumoniae ATCC13883, 8 mg/L (≈ 16.5 µM).
As for `CNC(=O)N1CC2(CC(C#Cc3ccc(-c4cc(Cn5ccnc5[C@H](C)O)no4)cc3)C2)C1` [Example 47, (S)-6-((4-(3-((2-(1-hydroxyethyl)-1H-imidazol-1-yl)methyl)isoxazol-5-yl)phenyl)ethynyl)-N-methyl-2-azaspiro[3.3]heptane-2-carboxamide], the MIC in the assay on E. coli ATCC 25922 and against K. pneumoniae ATCC13883 was 2 mg/L (≈ 4.49 µM) throughout. Moreover, the IC50 in assay [1] stood at 13.1 nM.
With `C[C@H](O)c1nccn1Cc1cc(-c2ccc(C#CC3CC4(C3)CN(C=O)C4)cc2)on1` [Example 22, (S)-6-((4-(3-((2-(1-hydroxyethyl)-1H-imidazol-1-yl)methyl)isoxazol-5-yl)phenyl)ethynyl)-2-azaspiro[3.3]heptane-2-carbaldehyde], the MIC turned out to be 1 mg/L (≈ 2.4 µM) against E. coli ATCC 25922 and 4 mg/L (≈ 9.6 µM) in the assay on K. pneumoniae ATCC13883. In addition, the IC50 in assay [1] stood at 6.54 nM.
For the compound `C[C@H](O)c1nccn1Cc1cc(-c2ccc(C#CC3=CCN(C(=O)c4ccncc4)CC3)cc2)on1` [Example 33, (S)-(4-((4-(3-((2-(1-hydroxyethyl)-1H-imidazol-1-yl)methyl)isoxazol-5-yl)phenyl)ethynyl)-3,6-dihydropyridin-1(2H)-yl)(pyridin-4-yl)methanone], the MIC in the assay on E. coli ATCC 25922 turned out to be 1 mg/L (≈ 2.09 µM); against K. pneumoniae ATCC13883, 2 mg/L (≈ 4.17 µM). Further, in assay [1], the IC50 was 19.7 nM.
In the case of `C[C@H](O)c1nccn1Cc1cc(-c2ccc(C#CC3CC4(C3)CN(C(=O)n3ccnc3)C4)cc2)on1` [Example 48, (S)-(6-((4-(3-((2-(1-hydroxyethyl)-1H-imidazol-1-yl)methyl)isoxazol-5-yl)phenyl)ethynyl)-2-azaspiro[3.3]heptan-2-yl)(1H-imidazol-1-yl)methanone], the MIC in the assay on E. coli ATCC 25922 and against K. pneumoniae ATCC13883 was 2 mg/L (≈ 4.14 µM) in each case. Besides, in assay [1], the IC50 came out at 27.9 nM.
For the compound `C[C@H](O)c1nccn1Cc1cc(-c2ccc(C#CC3CC4(C3)CN(Cc3ncco3)C4)cc2)on1` [Example 52, (S)-1-(1-((5-(4-((2-(oxazol-2-ylmethyl)-2-azaspiro[3.3]heptan-6-yl)ethynyl)phenyl)isoxazol-3-yl)methyl)-1H-imidazol-2-yl)ethan-1-ol], the MIC in the assay with K. pneumoniae ATCC51504 was 1 mg/L (≈ 2.13 µM); against E. coli ATCC 25922, 1 mg/L (≈ 2.13 µM); against K. pneumoniae ATCC13883, 2 mg/L (≈ 4.26 µM). Moreover, the 50% inhibitory concentration (IC50) in assay [1] was 13.9 nM.
In the case of `C[C@H](O)c1nccn1Cc1cc(-c2ccc(C#CC3CC4(C3)CN(C(N)=O)C4)cc2)on1` [Example 21, (S)-6-((4-(3-((2-(1-hydroxyethyl)-1H-imidazol-1-yl)methyl)isoxazol-5-yl)phenyl)ethynyl)-2-azaspiro[3.3]heptane-2-carboxamide], the MIC against E. coli ATCC 25922 was found to be 2 mg/L (≈ 4.64 µM); with K. pneumoniae ATCC13883, 4 mg/L (≈ 9.27 µM). Moreover, the IC50 in assay [1] was 5.11 nM.
The corresponding values for `C[C@H](O)c1nccn1Cc1cc(-c2ccc(C#CC3CC4(CCN(C(N)=O)CC4)C3)cc2)on1` [Example 19, (S)-2-((4-(3-((2-(1-hydroxyethyl)-1H-imidazol-1-yl)methyl)isoxazol-5-yl)phenyl)ethynyl)-7-azaspiro[3.5]nonane-7-carboxamide] are 2 mg/L (≈ 4.35 µM), 4 mg/L (≈ 8.7 µM) and 6.05 nM.
On the same counts, the results for `C[C@H](O)c1nccn1Cc1cc(-c2ccc(C#CC3CC4(C3)CN(C(=O)CO)C4)cc2)on1` [Example 26, (S)-2-hydroxy-1-(6-((4-(3-((2-(1-hydroxyethyl)-1H-imidazol-1-yl)methyl)isoxazol-5-yl)phenyl)ethynyl)-2-azaspiro[3.3]heptan-2-yl)ethan-1-one] are 2 mg/L (≈ 4.48 µM), 2 mg/L (≈ 4.48 µM) and 11.3 nM.
As for `C[C@H](O)c1nccn1Cc1cc(-c2ccc(C#CC3CC4(C3)CN(CC(N)=O)C4)cc2)on1` [Example 20, (S)-2-(6-((4-(3-((2-(1-hydroxyethyl)-1H-imidazol-1-yl)methyl)isoxazol-5-yl)phenyl)ethynyl)-2-azaspiro[3.3]heptan-2-yl)acetamide], the MIC in the assay on E. coli ATCC 25922 is 2 mg/L (≈ 4.49 µM); against K. pneumoniae ATCC13883 it was 4 mg/L (≈ 8.98 µM). For the same compound, the IC50 in assay [1] was found to be 6.77 nM.
For the compound `C[C@H](O)c1nccn1Cc1cc(-c2ccc(C#CC3CC4(CCN(C(=O)CO)CC4)C3)cc2)on1` [Example 12, (S)-2-hydroxy-1-(2-((4-(3-((2-(1-hydroxyethyl)-1H-imidazol-1-yl)methyl)isoxazol-5-yl)phenyl)ethynyl)-7-azaspiro[3.5]nonan-7-yl)ethan-1-one], the results for the MIC against E. coli ATCC 25922 and against K. pneumoniae ATCC13883 were 2 mg/L (≈ 4.21 µM) and 4 mg/L (≈ 8.43 µM), respectively. Further, the IC50 in assay [1] was determined as 4.06 nM.
On the same counts, the results for `C[C@H](O)c1nccn1Cc1cc(-c2ccc(C#CC3=CCN(Cc4ccc(C(=O)O)cc4)CC3)cc2)on1` [Example 34, (S)-4-((4-((4-(3-((2-(1-hydroxyethyl)-1H-imidazol-1-yl)methyl)isoxazol-5-yl)phenyl)ethynyl)-3,6-dihydropyridin-1(2H)-yl)methyl)benzoic acid] are 2 mg/L (≈ 3.93 µM), 4 mg/L (≈ 7.87 µM) and 26.7 nM.
On to `C[C@H](O)c1nccn1Cc1cc(-c2ccc(C#CC3CC4(CCN(C(=O)CC#N)CC4)C3)cc2)on1` [Example 29, (S)-3-(2-((4-(3-((2-(1-hydroxyethyl)-1H-imidazol-1-yl)methyl)isoxazol-5-yl)phenyl)ethynyl)-7-azaspiro[3.5]nonan-7-yl)-3-oxopropanenitrile], for which the MIC with E. coli ATCC 25922 turned out to be 2 mg/L (≈ 4.14 µM); against K. pneumoniae ATCC13883 it was 4 mg/L (≈ 8.27 µM). For the same compound, in assay [1], the half-maximal inhibitory concentration (IC50) turned out to be 6.17 nM.
The corresponding values for `C[C@H](O)c1nccn1Cc1cc(-c2ccc(C#CC3CC4(CCN(Cc5ccn[nH]5)CC4)C3)cc2)on1` [Example 25, (S)-1-(1-((5-(4-((7-((1H-pyrazol-5-yl)methyl)-7-azaspiro[3.5]nonan-2-yl)ethynyl)phenyl)isoxazol-3-yl)methyl)-1H-imidazol-2-yl)ethan-1-ol] are 2 mg/L (≈ 4.03 µM), 4 mg/L (≈ 8.05 µM) and 7.28 nM.
The corresponding values for `C[C@H](O)c1nccn1Cc1cc(-c2ccc(C#CC3CC4(CCN(Cc5ncc[nH]5)CC4)C3)cc2)on1` [Example 27, (S)-1-(1-((5-(4-((7-((1H-imidazol-2-yl)methyl)-7-azaspiro[3.5]nonan-2-yl)ethynyl)phenyl)isoxazol-3-yl)methyl)-1H-imidazol-2-yl)ethan-1-ol] are 2 mg/L (≈ 4.03 µM), 4 mg/L (≈ 8.05 µM) and 6.08 nM.
